In patent US10638779B2, “Hemiacetyl proflavors” (FIRMENICH SA, priority 2014, dated 2020):

Columns and labels:
[1] = Assessment of hydrolysis rate under spray drying feed conditions (pH 8.0 buffer/limonene emulsion); type: physicochemical; conditions: for t50 values relative to Comparative Sample 1: pH 8.0 emulsion; for t50 at pH 8.0 (time to 50% of the maximum absorbance): pH 8.0 phosphate buffer, 0.20 g in 0.8 g limonene added to 10 g buffer (emulsion)
Procedure: Assessment of Hydrolysis Rate Under Spray Driving Feed Conditions
Acetaldehyde precursors suitable for rendering into dry powders must avoid releasing significant levels of acetaldehyde during various stages of processing. In particular they should resist hydrolysis during the preparation of a spray drying feed emulsion, which can be neutral to basic pH and can contain a significant volume fraction of an oil phase.
A pH 8.0 buffer solution was prepared by adding 49.92 g disodium phosphate heptahydrate (CAS 7782-85-6) and 1.93 g monosodium phosphate (CAS 7558-80-7) to 1 L of deionised water. Aliquots of 0.20 g of the Examples 1, 2 and 10 preparations were dissolved in 0.8 g of limonene (CAS 5989-25-7) added to 10 g of the buffer solution within a 30 mL Erlenmeyer flask containing a stir bar. The concentration of acetaldehyde in solution was monitored as a function of time using a UV/Vis spectrometer probe measuring absorbance at 276 nm. Stirring was periodically stopped to allow oil droplets to rise to the surface and collect an unobscured absorbance reading of the aqueous solution. Release followed mixed zero and first order kinetics. t50 (the time to 50% of the maximum absorbance) values are reported in Table 2. Comparative Sample 1 has t50 of 2.1 minutes, which is so short that a person skilled in the art would consider this compound at risk of experiencing a problematic degree of hydrolysis during processing.

[2] = Assessment of hydrolysis rate at pH 3.0 (acetaldehyde release, UV/Vis 276 nm); type: physicochemical; conditions: for Acetaldehyde release rate relative to Comparative Samples 2-5: pH 3.0; for half-life / Half life (s) at pH 3.0: pH 3.0 citrate buffer, stirring at 200 rpm, first order release of acetaldehyde, measured for this work; for half-life: read-out: Half life (s) at pH 3.0 (converted)
Procedure: Assessment of Hydrolysis Rate at pH 3.0
Instant beverage applications require rapid hydrolysis of the precursor molecules in order to rapidly release acetaldehyde. Because such beverages might be consumed immediately upon preparation, it is desired for the release to be as rapid as possible.
A pH 3.0 buffer solution was prepared by adding 16.43 g citric acid (CAS 77-92-9) and 4.26 g disodium citrate (CAS 144-33-2) to 1 L of deionized water. Aliquots of the Examples 1, 2 and 10 preparations were added to the buffer solution within a Distek 2100B USP 2 dissolution system stirring at 200 rpm. The concentration of acetaldehyde in solution was monitored as a function of time using a UV/Vis spectrometer probe which measured absorbance at 276 nm every 1 second. Results for comparative samples were taken from work by Gassenmeier et al.. A sample of acetaldehyde diethyl acetal was also measured directly and the result was similar to that reported by Gassenmeier et al. Examples 1, 2 and 10 released acetaldehyde faster than Comparative Samples 2-5.

SMILES	t50 values relative to Comparative Sample 1 [1]	t50 at pH 8.0 (time to 50% of the maximum absorbance) [1]	Acetaldehyde release rate relative to Comparative Samples 2-5 [2]	half-life [2]	Half life (s) at pH 3.0 [2]
CCOC(C)OC(=O)CCC(=O)OC(C)OCC (stereo not drawn) [Example 1, Bis(1-ethoxyethyl) succinate]	longer	14.0 min	faster	96 s	
CCOC(C)OC(C)=O (stereo not drawn) [Example 10, 1-ethoxyethyl acetate, reference compound]		2.1 min	faster		31 s
CCOC(C)OC(=O)CCCCC(=O)OC(C)OCC (stereo not drawn) [Example 2, Bis(1-ethoxyethyl) adipate]	longer	44.6 min	faster	185 s	
CCOC(C)OCC [Comparative Sample 2, Acetaldehyde diethyl acetal, reference compound]					539 s
